In experiment [1] the target is Receptor tyrosine-protein kinase erbB-2 (Homo sapiens, UniProt P04626). Nature of the experiment: Selectivity interaction (Ambit KINOMEscan and KiNATiv profiling in Jurkat cells) EUB0000090b ERBB2. The experiment is classed as cell-based. The settings on record: at 1 µM.
The target in experiment [2] is Tyrosine-protein kinase FRK (Homo sapiens) (UniProt P42685). Nature of the experiment: Selectivity interaction (KinomeScan (DiscoverX)) EUB0000092b FRK. The settings on record: at 10 µM.
Sequence of Tyrosine-protein kinase FRK (Homo sapiens) (P42685 whole entry): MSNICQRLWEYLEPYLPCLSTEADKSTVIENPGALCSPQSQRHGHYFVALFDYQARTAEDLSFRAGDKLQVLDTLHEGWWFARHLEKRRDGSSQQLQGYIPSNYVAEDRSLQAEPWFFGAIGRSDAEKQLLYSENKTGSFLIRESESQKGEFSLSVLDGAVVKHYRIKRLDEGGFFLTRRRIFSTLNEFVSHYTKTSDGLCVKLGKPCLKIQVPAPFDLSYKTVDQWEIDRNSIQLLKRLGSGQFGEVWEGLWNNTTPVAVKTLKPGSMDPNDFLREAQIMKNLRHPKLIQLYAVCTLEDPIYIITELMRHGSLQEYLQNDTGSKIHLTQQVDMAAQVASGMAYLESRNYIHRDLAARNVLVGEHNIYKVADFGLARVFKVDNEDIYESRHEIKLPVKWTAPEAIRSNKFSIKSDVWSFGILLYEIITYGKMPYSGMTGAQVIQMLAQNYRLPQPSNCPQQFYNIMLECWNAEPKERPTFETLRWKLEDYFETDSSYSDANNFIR
Experiment [3] addresses T1, Cyclin-dependent kinase 11A (Homo sapiens) (UniProt Q9UQ88).
T1 sequence (whole entry): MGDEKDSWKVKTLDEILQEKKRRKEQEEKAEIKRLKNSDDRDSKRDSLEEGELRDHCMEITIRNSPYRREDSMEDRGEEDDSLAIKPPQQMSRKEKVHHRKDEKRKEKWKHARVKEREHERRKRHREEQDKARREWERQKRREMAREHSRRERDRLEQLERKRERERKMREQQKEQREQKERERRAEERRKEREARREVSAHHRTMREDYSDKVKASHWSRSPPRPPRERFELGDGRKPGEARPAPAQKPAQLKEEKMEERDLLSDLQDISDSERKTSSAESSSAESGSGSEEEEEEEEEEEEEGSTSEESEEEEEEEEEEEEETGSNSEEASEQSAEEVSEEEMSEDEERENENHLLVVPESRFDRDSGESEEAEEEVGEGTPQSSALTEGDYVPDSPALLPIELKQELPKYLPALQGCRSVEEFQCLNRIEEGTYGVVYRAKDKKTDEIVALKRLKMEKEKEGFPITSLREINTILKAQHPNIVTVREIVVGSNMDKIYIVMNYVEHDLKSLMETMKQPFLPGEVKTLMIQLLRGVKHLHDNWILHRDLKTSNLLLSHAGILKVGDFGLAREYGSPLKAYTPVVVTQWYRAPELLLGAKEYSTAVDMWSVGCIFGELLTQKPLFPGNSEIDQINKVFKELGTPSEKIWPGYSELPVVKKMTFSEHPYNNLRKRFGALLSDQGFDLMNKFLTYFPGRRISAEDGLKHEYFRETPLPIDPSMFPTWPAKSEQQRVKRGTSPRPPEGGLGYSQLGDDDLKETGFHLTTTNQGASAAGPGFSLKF
The experiment can be described thus: Selectivity interaction (KinomeScan (DiscoverX)) EUB0000655a CDK11A. The settings on record: at 10 µM.

Experiment [4] concerns the target Ribosomal protein S6 kinase alpha-6 (Homo sapiens, UniProt Q9UK32). The experiment can be described thus: Selectivity interaction (KinomeScan (DiscoverX)) EUB0000655a RPS6KA6. The settings on record: at 10 µM.
The target of experiment [5] is Dual specificity tyrosine-phosphorylation-regulated kinase 1B (Homo sapiens, UniProt Q9Y463). Nature of the experiment: Selectivity interaction (KinomeScan (DiscoverX)) EUB0001550a DYRK1B. Conditions: at 1 µM.
Sequence of Dual specificity tyrosine-phosphorylation-regulated kinase 1B (Q9Y463 whole entry, looked up): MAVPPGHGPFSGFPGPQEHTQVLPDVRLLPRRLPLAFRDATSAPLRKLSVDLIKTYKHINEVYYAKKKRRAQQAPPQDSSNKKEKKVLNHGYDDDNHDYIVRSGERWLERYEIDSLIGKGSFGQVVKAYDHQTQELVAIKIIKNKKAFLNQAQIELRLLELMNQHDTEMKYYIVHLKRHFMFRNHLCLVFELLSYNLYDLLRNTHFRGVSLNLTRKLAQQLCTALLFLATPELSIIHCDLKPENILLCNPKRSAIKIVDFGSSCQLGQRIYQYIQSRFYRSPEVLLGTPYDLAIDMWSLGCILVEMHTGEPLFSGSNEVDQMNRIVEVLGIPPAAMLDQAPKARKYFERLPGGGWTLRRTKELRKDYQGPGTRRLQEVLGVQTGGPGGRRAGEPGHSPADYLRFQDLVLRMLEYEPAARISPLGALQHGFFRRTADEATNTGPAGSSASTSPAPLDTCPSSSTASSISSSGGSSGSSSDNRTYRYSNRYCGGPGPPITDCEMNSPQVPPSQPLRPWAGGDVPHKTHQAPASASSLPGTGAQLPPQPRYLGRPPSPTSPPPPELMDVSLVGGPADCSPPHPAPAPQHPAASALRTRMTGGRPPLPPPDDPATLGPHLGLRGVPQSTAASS
Experiment [6] concerns the target T2, Diacylglycerol kinase eta (Homo sapiens) (UniProt Q86XP1).
T2 sequence (whole entry): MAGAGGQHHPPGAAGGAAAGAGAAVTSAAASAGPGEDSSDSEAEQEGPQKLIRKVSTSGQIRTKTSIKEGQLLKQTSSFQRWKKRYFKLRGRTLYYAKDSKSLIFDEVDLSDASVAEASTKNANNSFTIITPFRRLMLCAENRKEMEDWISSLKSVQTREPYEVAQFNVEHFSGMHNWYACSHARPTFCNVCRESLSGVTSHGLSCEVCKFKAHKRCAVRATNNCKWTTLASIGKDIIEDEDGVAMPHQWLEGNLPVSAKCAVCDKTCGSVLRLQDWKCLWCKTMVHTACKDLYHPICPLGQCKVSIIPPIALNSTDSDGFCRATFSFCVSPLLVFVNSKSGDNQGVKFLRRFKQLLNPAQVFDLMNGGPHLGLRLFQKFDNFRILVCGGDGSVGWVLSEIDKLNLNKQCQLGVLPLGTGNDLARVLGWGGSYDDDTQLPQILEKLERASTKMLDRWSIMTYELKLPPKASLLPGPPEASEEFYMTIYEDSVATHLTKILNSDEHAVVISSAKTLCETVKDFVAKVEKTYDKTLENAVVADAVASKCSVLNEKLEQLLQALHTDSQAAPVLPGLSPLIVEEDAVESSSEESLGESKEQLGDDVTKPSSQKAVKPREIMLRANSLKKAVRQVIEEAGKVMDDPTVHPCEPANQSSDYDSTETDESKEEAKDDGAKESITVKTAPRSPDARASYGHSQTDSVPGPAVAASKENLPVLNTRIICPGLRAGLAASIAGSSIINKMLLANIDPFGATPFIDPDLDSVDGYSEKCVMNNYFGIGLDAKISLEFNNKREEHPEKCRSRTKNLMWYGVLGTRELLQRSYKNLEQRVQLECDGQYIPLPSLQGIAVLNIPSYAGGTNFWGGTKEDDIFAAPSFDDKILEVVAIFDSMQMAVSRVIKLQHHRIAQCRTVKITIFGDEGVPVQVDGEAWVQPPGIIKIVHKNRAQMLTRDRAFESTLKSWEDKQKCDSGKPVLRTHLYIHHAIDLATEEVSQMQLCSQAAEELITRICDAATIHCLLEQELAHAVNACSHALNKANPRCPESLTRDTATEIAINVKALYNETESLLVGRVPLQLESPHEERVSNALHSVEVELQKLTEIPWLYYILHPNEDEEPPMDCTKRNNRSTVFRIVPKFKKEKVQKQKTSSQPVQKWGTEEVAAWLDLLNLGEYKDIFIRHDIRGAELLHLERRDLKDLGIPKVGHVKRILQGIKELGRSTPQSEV
Nature of the experiment: Selectivity interaction (ActivX KiNativ screen (kinase selectivity in THP-1 cell lysates)) EUB0000639a DGKH. It counts as subcellular. Conditions: lysate.

The target of experiment [7] is Insulin receptor-related protein (Homo sapiens) (UniProt P14616). Nature of the experiment: Selectivity interaction (KinomeScan (DiscoverX)) EUB0001619a INSRR. The settings on record: at 1 µM.
Sequence of Insulin receptor-related protein (Homo sapiens) (P14616 27-742 limits assumed): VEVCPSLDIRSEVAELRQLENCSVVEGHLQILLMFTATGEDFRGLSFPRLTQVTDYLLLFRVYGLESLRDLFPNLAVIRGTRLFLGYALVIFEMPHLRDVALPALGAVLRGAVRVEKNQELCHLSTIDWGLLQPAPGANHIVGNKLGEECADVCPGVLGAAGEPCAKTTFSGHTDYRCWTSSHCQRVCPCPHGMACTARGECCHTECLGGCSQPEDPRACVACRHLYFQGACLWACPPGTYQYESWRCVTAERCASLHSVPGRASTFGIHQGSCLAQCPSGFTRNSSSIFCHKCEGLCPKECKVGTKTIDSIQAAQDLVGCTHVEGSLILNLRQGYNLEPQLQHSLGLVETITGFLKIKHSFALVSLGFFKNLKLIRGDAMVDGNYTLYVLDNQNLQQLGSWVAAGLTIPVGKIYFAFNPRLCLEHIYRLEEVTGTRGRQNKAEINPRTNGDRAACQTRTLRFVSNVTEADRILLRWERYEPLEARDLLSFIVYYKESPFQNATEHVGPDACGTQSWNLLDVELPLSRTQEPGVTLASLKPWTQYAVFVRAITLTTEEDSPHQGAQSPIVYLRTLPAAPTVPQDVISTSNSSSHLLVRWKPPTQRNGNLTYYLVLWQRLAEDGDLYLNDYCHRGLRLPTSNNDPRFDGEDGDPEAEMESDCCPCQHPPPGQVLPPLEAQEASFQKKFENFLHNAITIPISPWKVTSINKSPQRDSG
Sequence of Insulin receptor-related protein (Homo sapiens) (P14616 747-1297 limits assumed): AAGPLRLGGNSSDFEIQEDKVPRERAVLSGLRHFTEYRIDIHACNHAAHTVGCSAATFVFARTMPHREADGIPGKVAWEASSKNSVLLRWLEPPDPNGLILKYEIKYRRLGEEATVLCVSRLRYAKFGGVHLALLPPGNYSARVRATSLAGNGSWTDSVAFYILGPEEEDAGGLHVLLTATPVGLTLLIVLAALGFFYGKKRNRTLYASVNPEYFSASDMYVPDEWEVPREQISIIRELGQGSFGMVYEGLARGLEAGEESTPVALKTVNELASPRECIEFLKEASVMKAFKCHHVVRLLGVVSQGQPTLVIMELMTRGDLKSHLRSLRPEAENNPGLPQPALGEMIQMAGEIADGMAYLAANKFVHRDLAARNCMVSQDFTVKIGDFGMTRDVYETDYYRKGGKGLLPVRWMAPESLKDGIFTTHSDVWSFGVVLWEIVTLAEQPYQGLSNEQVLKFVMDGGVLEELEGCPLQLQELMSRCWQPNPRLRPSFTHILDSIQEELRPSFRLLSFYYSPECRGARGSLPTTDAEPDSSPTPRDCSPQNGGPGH
The target of experiment [8] is Serine/threonine-protein kinase PAK 1 (Homo sapiens) (UniProt Q13153). The experiment can be described thus: Selectivity interaction (KinomeScan (DiscoverX)) EUB0000618a PAK1. Conditions: at 10 µM.
Sequence of Serine/threonine-protein kinase PAK 1 (Homo sapiens) (Q13153 whole entry): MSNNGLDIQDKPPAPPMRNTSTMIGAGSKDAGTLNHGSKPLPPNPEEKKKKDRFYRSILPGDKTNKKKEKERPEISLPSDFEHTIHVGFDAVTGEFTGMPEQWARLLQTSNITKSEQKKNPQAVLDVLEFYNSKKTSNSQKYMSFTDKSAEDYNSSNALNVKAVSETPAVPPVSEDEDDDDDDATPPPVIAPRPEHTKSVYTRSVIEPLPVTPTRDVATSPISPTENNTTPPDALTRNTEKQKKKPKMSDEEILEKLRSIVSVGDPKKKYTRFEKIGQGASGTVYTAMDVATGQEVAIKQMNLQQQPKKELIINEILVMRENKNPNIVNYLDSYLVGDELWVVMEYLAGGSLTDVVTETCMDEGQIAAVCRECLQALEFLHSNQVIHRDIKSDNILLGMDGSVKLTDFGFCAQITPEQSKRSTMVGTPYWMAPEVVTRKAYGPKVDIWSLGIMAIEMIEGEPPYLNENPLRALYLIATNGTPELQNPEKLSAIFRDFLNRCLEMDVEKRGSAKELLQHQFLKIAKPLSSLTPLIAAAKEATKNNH

The structures appear in SMILES notation.

Sequence of Ribosomal protein S6 kinase alpha-6 (Q9UK32 whole entry): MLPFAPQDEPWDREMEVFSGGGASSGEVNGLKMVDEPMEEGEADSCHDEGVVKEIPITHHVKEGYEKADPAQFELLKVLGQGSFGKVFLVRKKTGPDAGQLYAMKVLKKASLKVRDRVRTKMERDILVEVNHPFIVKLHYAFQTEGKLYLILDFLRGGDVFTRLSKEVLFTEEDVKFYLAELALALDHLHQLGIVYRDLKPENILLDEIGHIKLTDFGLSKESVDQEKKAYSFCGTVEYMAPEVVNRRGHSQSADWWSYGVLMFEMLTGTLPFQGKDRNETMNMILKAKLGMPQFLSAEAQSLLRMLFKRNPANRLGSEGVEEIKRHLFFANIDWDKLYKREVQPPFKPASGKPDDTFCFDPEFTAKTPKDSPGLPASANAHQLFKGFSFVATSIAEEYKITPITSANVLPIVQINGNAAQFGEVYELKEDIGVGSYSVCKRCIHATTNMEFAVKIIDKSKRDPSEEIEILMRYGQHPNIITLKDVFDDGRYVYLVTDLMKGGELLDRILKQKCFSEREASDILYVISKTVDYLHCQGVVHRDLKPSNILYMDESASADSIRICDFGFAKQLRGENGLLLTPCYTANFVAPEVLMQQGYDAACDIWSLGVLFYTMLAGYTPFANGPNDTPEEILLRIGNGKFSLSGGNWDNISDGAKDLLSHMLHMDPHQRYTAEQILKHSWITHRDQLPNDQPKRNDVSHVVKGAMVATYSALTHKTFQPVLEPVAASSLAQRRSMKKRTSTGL
Sequence of Receptor tyrosine-protein kinase erbB-2 (P04626 whole entry): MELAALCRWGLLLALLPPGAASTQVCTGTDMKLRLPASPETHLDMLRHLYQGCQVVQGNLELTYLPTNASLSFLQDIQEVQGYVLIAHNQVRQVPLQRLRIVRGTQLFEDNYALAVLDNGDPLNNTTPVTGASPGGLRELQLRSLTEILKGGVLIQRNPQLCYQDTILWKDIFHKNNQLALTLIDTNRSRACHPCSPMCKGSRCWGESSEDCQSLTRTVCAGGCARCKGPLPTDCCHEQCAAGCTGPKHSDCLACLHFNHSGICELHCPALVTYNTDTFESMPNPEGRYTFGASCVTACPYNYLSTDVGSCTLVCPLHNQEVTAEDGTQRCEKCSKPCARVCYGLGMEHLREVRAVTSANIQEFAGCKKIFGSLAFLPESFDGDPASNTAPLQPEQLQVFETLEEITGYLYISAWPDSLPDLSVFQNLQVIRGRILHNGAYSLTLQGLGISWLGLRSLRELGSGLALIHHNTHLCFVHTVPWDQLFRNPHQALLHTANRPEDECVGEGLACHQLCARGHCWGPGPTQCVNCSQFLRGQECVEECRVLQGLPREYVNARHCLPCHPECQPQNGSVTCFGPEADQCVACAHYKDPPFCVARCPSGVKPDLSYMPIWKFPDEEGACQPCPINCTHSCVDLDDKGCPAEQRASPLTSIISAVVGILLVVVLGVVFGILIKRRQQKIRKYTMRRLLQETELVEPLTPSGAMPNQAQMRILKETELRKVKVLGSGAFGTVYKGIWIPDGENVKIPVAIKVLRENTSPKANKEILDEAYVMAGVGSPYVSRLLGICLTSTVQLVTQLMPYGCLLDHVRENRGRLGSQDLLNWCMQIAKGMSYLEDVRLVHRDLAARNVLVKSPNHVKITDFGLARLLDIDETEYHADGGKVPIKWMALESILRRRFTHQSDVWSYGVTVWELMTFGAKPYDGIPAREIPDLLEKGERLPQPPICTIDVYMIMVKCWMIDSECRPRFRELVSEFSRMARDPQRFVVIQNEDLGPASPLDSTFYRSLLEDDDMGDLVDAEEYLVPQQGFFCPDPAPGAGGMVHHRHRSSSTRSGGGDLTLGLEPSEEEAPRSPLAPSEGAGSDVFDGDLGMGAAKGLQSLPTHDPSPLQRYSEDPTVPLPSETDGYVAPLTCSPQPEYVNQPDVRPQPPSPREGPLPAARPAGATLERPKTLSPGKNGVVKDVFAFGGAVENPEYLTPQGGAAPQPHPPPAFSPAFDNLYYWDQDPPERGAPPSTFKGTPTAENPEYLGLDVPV

In turn, `CN(C)C/C=C/C(=O)Nc1ccc(C(=O)N2CCCC(Nc3ncc(Cl)c(-c4c[nH]c5ccccc45)n3)C2)cc1` (configuration not stated) had a % of control in experiment [1] of 96%.

For the molecule `CCC(=O)N1CCN(c2ccc(-n3c(=O)ccc4cnc5ccc(-c6cnc7ccccc7c6)cc5c43)cc2C(F)(F)F)CC1`, in experiment [2], the % of control was found to be 60%.

Turning to `CN(C)CCOc1ccc(-c2nc(-c3ccncc3)c(-c3ccc4c(c3)CC/C4=N\O)[nH]2)cc1`, the % of control in experiment [3] stood at 98%; in experiment [4], 88%.

`CN(C)CC#Cc1ccc2[nH]c3c(c2c1)-c1nc(N)ncc1CCC3` displayed a % of control in experiment [5] of 26%.

Turning to `CC[C@@H]1[C@H](F)C(=O)N[C@@H]1COc1nccc2cc(C(N)=O)c(OC)cc12` [ZIMLOVISERTIB], the % of inhibition in experiment [6] (at 0.01 µM) is 12.2%; in experiment [6] (at 0.04 µM), 0%; in experiment [6] (at 0.2 µM), 20%; in experiment [6] (at 1 µM), 0.8%; in experiment [6] (at 5 µM), -3.6%.

As for `N#Cc1cccc(-c2c[nH]c3ncnc(N4CCOCC4)c23)c1`, the % of control in experiment [7] came to 100%.

`O[C@H]1CC[C@H](Nc2ncc3nc(Nc4c(F)cc(F)cc4F)n([C@H]4CCOC4)c3n2)CC1` yielded a % of control in experiment [8] of 99%.

For the origin of these results see ChEMBL document CHEMBL5465560, “Selectivity Literature for EUbOPEN Chemogenomic Library” (2024).
